Measurements as given in the supplement of paper PMC7840683.
± gives the standard deviation of the averaged measurements.

System: HepaRG
Assay: LDH release cytotoxicity, % of total lysis control; higher = more cytotoxic
Conditions: 48 h
Summary of the method: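 Single-lot HepaRG cells in collagen I-coated 96-well plates were treated for 48 h in serum-free induction medium containing 0.5% DMSO with test chemicals in eight-point half-log series up to 100 µM. For total lysis, wells received 0.1% Triton X. LDH in 50 µL spent medium was assayed by resorufin fluorescence with CytoTox-ONE. Percent cytotoxicity was normalized to the on-plate vehicle and total lysis controls, with duplicates averaged.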

| Structure (SMILES) | LDH release cytotoxicity (0.03162 µM) [%] | LDH release cytotoxicity (0.1 µM) [%] | LDH release cytotoxicity (0.3162278 µM) [%] | LDH release cytotoxicity (1 µM) [%] | LDH release cytotoxicity (3.16228 µM) [%] | LDH release cytotoxicity (10 µM) [%] | LDH release cytotoxicity (31.6228 µM) [%] | LDH release cytotoxicity (100 µM) [%] | LDH release cytotoxicity (0.031623 µM) [%] | LDH release cytotoxicity (0.316228 µM) [%] |
| --- | --- | --- | --- | --- | --- | --- | --- | --- | --- | --- |
| N#Cc1c[nH]cc1-c1cccc2c1OC(F)(F)O2 [Fludioxonil] | -1.45 ± 1 | -1.69 ± 0.5 | -1.72 ± 0.45 | -1.04 ± 0.23 | 0.437 ± 0.076 | 0.919 ± 0.9 | 3.74 ± 0.92 | 9.41 ± 1.2 | – | – |
| CC(C)N(C(=O)COc1nnc(C(F)(F)F)s1)c1ccc(F)cc1 [Flufenacet] | -2.32 ± 1.1 | -2.03 ± 0.074 | -2.3 ± 0.27 | -2.01 ± 0.82 | -2.29 ± 0.33 | -1.38 ± 0.041 | 0.458 ± 1.1 | 1.71 ± 0.18 | – | – |
| CCOC(=O)COc1cc(-n2ncc(C(F)(F)F)c(C)c2=O)c(F)cc1Cl [Flufenpyr-ethyl] | -1.89 ± 1.7 | -1.45 ± 0.22 | -1.14 ± 0.024 | -1.34 ± 0.57 | -1.22 ± 0.67 | -0.592 ± 0.22 | -0.509 ± 1.1 | 0.726 ± 0.9 | – | – |
| CCN(Cc1c(F)cccc1Cl)c1c([N+](=O)[O-])cc(C(F)(F)F)cc1[N+](=O)[O-] [Flumetralin] | -0.56 ± 1.7 | -0.903 ± 0.34 | -1.29 ± 0.66 | -1.01 ± 0.52 | -0.0868 ± 0.54 | -0.582 ± 0.92 | -0.2 ± 0.43 | 5.506 ± 0.052 | – | – |
| Cc1ccn2nc(S(=O)(=O)Nc3c(F)cccc3F)nc2n1 [Flumetsulam] | -2 ± 0.6 | -0.7 ± 1.5 | -1.43 ± 3 | -1.43 ± 1.5 | -1.84 ± 0.62 | 0.538 ± 0.94 | 0.194 ± 2 | 1.86 ± 1.8 | – | – |
| CCCCCOC(=O)COc1cc(N2C(=O)C3=C(CCCC3)C2=O)c(F)cc1Cl [Flumiclorac-pentyl] | -1.94 ± 0.45 | -1.12 ± 1.1 | -0.329 ± 0.33 | -1.17 ± 0.56 | -0.793 ± 0.22 | -0.278 ± 0.39 | -1.05 ± 0.035 | 0.436 ± 0.073 | – | – |
| C#CCN1C(=O)COc2cc(F)c(N3C(=O)C4=C(CCCC4)C3=O)cc21 [Flumioxazin] | -0.355 ± 0.95 | -0.895 ± 0.2 | -0.721 ± 1.1 | -1.33 ± 0.85 | -0.964 ± 0.086 | -1.1 ± 0.023 | -0.837 ± 0.11 | 0.763 ± 0.79 | – | – |
| CN(C)C(=O)Nc1cccc(C(F)(F)F)c1 [Fluometuron] | -0.415 ± 0.25 | -0.308 ± 0.37 | -0.631 ± 0.97 | -0.564 ± 1.4 | -0.69 ± 0.18 | 0.366 ± 0.1 | -0.569 ± 0.084 | 0.377 ± 0.36 | – | – |
| c1ccc2c(c1)-c1cccc3cccc-2c13 [Fluoranthene] | -1.36 ± 0.16 | -0.258 ± 0.61 | -0.857 ± 0.079 | -0.0961 ± 0.27 | -0.593 ± 0.16 | -0.226 ± 0.011 | -0.969 ± 0.3 | -2.77 ± 0.41 | – | – |
| c1ccc2c(c1)Cc1ccccc1-2 [Fluorene] | -1.56 ± 0.24 | -1 ± 0.37 | -0.941 ± 0.29 | -0.74 ± 0.44 | -0.5867 ± 0.0032 | -1.05 ± 0.38 | -0.324 ± 0.11 | -0.2 ± 0.14 | – | – |
| CON=C(C1=NOCCO1)c1ccccc1Oc1ncnc(Oc2ccccc2Cl)c1F [Fluoxastrobin] | -1.84 ± 0.41 | -1.61 ± 0.52 | -0.5866 ± 0.0016 | 0.517 ± 2.5 | -0.886 ± 0.77 | -0.0116 ± 2.9 | 13.1 ± 0.82 | 33.8 ± 4 | – | – |
| CCCCCCC(C)OC(=O)COc1nc(F)c(Cl)c(N)c1Cl (centres undefined) [Fluroxypyr-meptyl] | – | -0.123 ± 1.8 | – | -0.348 ± 1.1 | -7.7 ± 0.78 | 8.36 ± 3.8 | -0.641 ± 0.61 | -0.963 ± 0.71 | 1.23 ± 0.18 | 0.191 ± 1 |
| Nc1c(Cl)c(F)nc(OCC(=O)O)c1Cl [Fluroxypyr] | -0.285 ± 0.61 | -1.46 ± 1.1 | -1.77 ± 1 | -1.29 ± 0.69 | -1.07 ± 0.26 | -0.274 ± 0.24 | 0.368 ± 0.6 | 1.75 ± 0.91 | – | – |
| C[Si](Cn1cncn1)(c1ccc(F)cc1)c1ccc(F)cc1 [Flusilazole] | -1.41 ± 1 | -1.68 ± 0.17 | -2.26 ± 0.57 | -1.24 ± 0.29 | -2.08 ± 0.094 | -1.2 ± 0.38 | 13.7 ± 1.9 | 42.5 ± 8.6 | – | – |
| CC(C)C(=O)Nc1ccc([N+](=O)[O-])c(C(F)(F)F)c1 [Flutamide] | -0.977 ± 0.81 | -1.06 ± 0.19 | -1.63 ± 1.3 | -1.92 ± 1.5 | -1.23 ± 0.22 | 0.0752 ± 0.3 | 2.14 ± 1.3 | 13.6 ± 7.4 | – | – |
| COC(=O)CSc1cc(N=c2sc(=O)n3n2CCCC3)c(F)cc1Cl [Fluthiacet-methyl] | -1.78 ± 1.1 | -2.67 ± 1 | -1.91 ± 1 | -1.73 ± 0.018 | -1.61 ± 0.37 | -1.57 ± 0.3 | -0.786 ± 0.091 | 0.903 ± 0.25 | – | – |
| CC(C)Oc1cccc(NC(=O)c2ccccc2C(F)(F)F)c1 [Flutolanil] | – | -2.54 ± 0.44 | – | -2.18 ± 0.77 | -1.81 ± 1.2 | -1.86 ± 0.057 | -0.343 ± 0.59 | 3.01 ± 0.1 | -1.37 ± 1.1 | -3.14 ± 0.46 |
| Nc1nc(=O)c2nc(CNc3ccc(C(=O)NC(CCC(=O)O)C(=O)O)cc3)cnc2[nH]1 (centres undefined) [Folic acid] | -0.0941 ± 0.85 | -1.11 ± 0.044 | -1.22 ± 0.067 | -1.1 ± 0.086 | -0.966 ± 0.064 | -0.672 ± 0.085 | -0.33 ± 0.12 | 1.64 ± 0.3 | – | – |
